Patent US9833497B2, “Human originated EGF domain proteins and use of the same” (CHENGDU SOURCEBIO LIMITED-LIABILITY COMPANY, priority 2013, dated 2017)

Tests used:
Assay type in all cases: cell-based
Aeromonas hydrophila = assay: MIC against Gram-negative bacteria: Aeromonas hydrophila; settings: for MIC A. hydrophila / MIC against A. hydrophila: 5×10^5 CFU/mL
Summary of the method: (§1)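 First, colonies from LB agar were grown in LB at 37° C, 185 rpm, to McFarland turbidity 0.5, then centrifuged and resuspended in fresh LB. Next, wells received 5×10^5 CFU/mL bacteria plus two-fold serially diluted EGF domain protein (triplicate). Finally, plates were shaken at 37° C and the no-growth concentration taken as MIC.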

Proteus vulgaris = assay: MIC against Gram-negative bacteria: Proteus vulgaris; settings: for MIC P. vulgaris / MIC against P. vulgaris: 5×10^5 CFU/mL
Summary of the method: as §1

Serratia marcescens = assay: MIC against Gram-negative bacteria: Serratia marcescens; settings: for MIC S. marcescens / MIC against S. marcescens: 5×10^5 CFU/mL
Summary of the method: as §1

Pseudomonas aeruginosa = assay: MIC against Gram-negative bacteria: Pseudomonas aeruginosa; settings: for MIC P. aeruginosa / MIC against P. aeruginosa: 5×10^5 CFU/mL
Summary of the method: as §1

Proteus mirabilis = assay: MIC against Gram-negative bacteria: Proteus mirabilis; settings: for MIC P. mirabilis / MIC against P. mirabilis: 5×10^5 CFU/mL
Summary of the method: as §1

E. coli BL21 = assay: MIC against Gram-negative bacteria: E. coli BL21; settings: for MIC E. coli BL21 / MIC against E. coli BL21: 5×10^5 CFU/mL
Summary of the method: as §1

Enterobacter cloacae = assay: MIC against Gram-negative bacteria: Enterobacter cloacae; settings: for MIC E. cloacae / MIC against E. cloacae: 5×10^5 CFU/mL
Summary of the method: as §1

Citrobacter diversus = assay: MIC against Gram-negative bacteria: Citrobacter diversus; settings: for MIC C. diversus / MIC against C. diversus: 5×10^5 CFU/mL
Summary of the method: as §1

E. coli DH5α = assay: Antibacterial activity: MIC and growth curve against E. coli DH5α in 96-well plate; settings: minimal inhibitory concentration against E. coli DH5α; 96-well plate, 5×10^5 CFU/mL, 37° C., judged after 8 h
Summary of the method: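 MIC taken as lowest protein level with no bacterial growth, tracked by A600 every 30 min during 37 °C, 175 rpm culture. Two-fold protein series 50-12.5 μg/mL final, triplicate wells, against 5×10^5 CFU/mL of LB-washed mid-log cells.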

Moraxella catarrhalis = assay: MIC against Gram-negative bacteria: Moraxella catarrhalis; settings: for MIC M. catarrhalis / MIC against M. catarrhalis: 5×10^5 CFU/mL
Summary of the method: as §1

Klebsiella pneumonia = assay: MIC against Gram-negative bacteria: Klebsiella pneumonia; settings: for MIC K. pneumonia / MIC against K. pneumonia: 5×10^5 CFU/mL
Summary of the method: as §1

[1] = 10 h cultivation at 37° C., two-fold serial dilution

PRT641 (QAEECGILNGCENGRCVRVQEGYTCDCFDGYHLDTAK; listed as Homo sapiens)
50 µg/mL: MIC S. marcescens (Serratia marcescens; 96-well plate, 37° C., 10 h) | MIC P. mirabilis (Proteus mirabilis; 96-well plate, 37° C., 10 h) | MIC E. cloacae (Enterobacter cloacae; 96-well plate, 37° C., 10 h) | MIC (E. coli DH5α)
12.5 µg/mL: MIC P. vulgaris (Proteus vulgaris; 96-well plate, 37° C., 10 h) | MIC P. aeruginosa (Pseudomonas aeruginosa; 96-well plate, 37° C., 10 h) | MIC C. diversus (Citrobacter diversus; 96-well plate, 37° C., 10 h)
25 µg/mL: MIC A. hydrophila (Aeromonas hydrophila; 96-well plate, 37° C., 10 h) | MIC E. coli BL21 (E. coli BL21; 96-well plate, 37° C., 10 h) | MIC M. catarrhalis (Moraxella catarrhalis; 96-well plate, 37° C., 10 h) | MIC K. pneumonia (Klebsiella pneumonia; 96-well plate, 37° C., 10 h)

PRT710 (DQDECAVYGTCSQTCRNTHGSYTCSCVEGYLMQPDNRSCK; listed as Homo sapiens)
25 µg/mL: MIC P. vulgaris (Proteus vulgaris; 96-well plate, 37° C., 10 h) | MIC (E. coli DH5α) | MIC M. catarrhalis (Moraxella catarrhalis; 96-well plate, 37° C., 10 h)
50 µg/mL: MIC S. marcescens (Serratia marcescens; 96-well plate, 37° C., 10 h) | MIC P. aeruginosa (Pseudomonas aeruginosa; 96-well plate, 37° C., 10 h) | MIC E. cloacae (Enterobacter cloacae; 96-well plate, 37° C., 10 h) | MIC C. diversus (Citrobacter diversus; 96-well plate, 37° C., 10 h)
12.5 µg/mL: MIC A. hydrophila (Aeromonas hydrophila; 96-well plate, 37° C., 10 h) | MIC P. mirabilis (Proteus mirabilis; 96-well plate, 37° C., 10 h) | MIC E. coli BL21 (E. coli BL21; 96-well plate, 37° C., 10 h) | MIC K. pneumonia (Klebsiella pneumonia; 96-well plate, 37° C., 10 h)

PRT479 (AAMACSHQRCHGHGRCARRDPGQMEAFLHLWPDGSLGDWKSFSCHCYWGWAGPTCQ; listed as Homo sapiens)
12.5 µg/mL: MIC against M. catarrhalis (Moraxella catarrhalis; 96-well plate, 37° C., 10 h) | MIC against K. pneumonia (Klebsiella pneumonia; 96-well plate, 37° C., 10 h)
25 µg/mL: MIC against S. marcescens (Serratia marcescens; 96-well plate, 37° C., 10 h) | MIC against P. aeruginosa (Pseudomonas aeruginosa; 96-well plate, 37° C., 10 h) | MIC against P. mirabilis (Proteus mirabilis; 96-well plate, 37° C., 10 h) | MIC against E. cloacae (Enterobacter cloacae; 96-well plate, 37° C., 10 h) | MIC against C. diversus (Citrobacter diversus; 96-well plate, 37° C., 10 h) | MIC (E. coli DH5α)
50 µg/mL: MIC against A. hydrophila (Aeromonas hydrophila; 96-well plate, 37° C., 10 h) | MIC against P. vulgaris (Proteus vulgaris; 96-well plate, 37° C., 10 h) | MIC against E. coli BL21 (E. coli BL21; 96-well plate, 37° C., 10 h)

PRT1216 (YPDACKRSPCQHGGSCTGLPSGGYQCTCLSQFTGRNCE; listed as Homo sapiens)
50 µg/mL: MIC against P. aeruginosa (Pseudomonas aeruginosa; Pseudomonas aeruginosa, 96-well plate, 37° C., 10 h) | MIC against P. mirabilis (Proteus mirabilis; Proteus mirabilis, 96-well plate, 37° C., 10 h) | MIC against C. diversus (Citrobacter diversus; Citrobacter diversus, 96-well plate, 37° C., 10 h) | MIC (E. coli DH5α)
12.5 µg/mL: MIC against S. marcescens (Serratia marcescens; Serratia marcescens, 96-well plate, 37° C., 10 h) | MIC against E. coli BL21 (E. coli BL21; E. coli BL21, 96-well plate, 37° C., 10 h) | MIC against M. catarrhalis (Moraxella catarrhalis; Moraxella catarrhalis, 96-well plate, 37° C., 10 h) | MIC against K. pneumonia (Klebsiella pneumonia; Klebsiella pneumonia, 96-well plate, 37° C., 10 h)
25 µg/mL: MIC against A. hydrophila (Aeromonas hydrophila; Aeromonas hydrophila, 96-well plate, 37° C., 10 h) | MIC against P. vulgaris (Proteus vulgaris; Proteus vulgaris, 96-well plate, 37° C., 10 h) | MIC against E. cloacae (Enterobacter cloacae; Enterobacter cloacae, 96-well plate, 37° C., 10 h)

PRT1087 (HEEPCGPSHKSFCLNGGLCYVIPTIPSPFCRCVENYTGARCE; listed as Homo sapiens)
25 µg/mL: MIC P. vulgaris (Proteus vulgaris; [1]) | MIC S. marcescens (Serratia marcescens; [1]) | MIC P. mirabilis (Proteus mirabilis; [1]) | MIC C. diversus (Citrobacter diversus; [1])
50 µg/mL: MIC P. aeruginosa (Pseudomonas aeruginosa; [1]) | MIC E. cloacae (Enterobacter cloacae; [1]) | MIC (E. coli DH5α) | MIC M. catarrhalis (Moraxella catarrhalis; [1]) | MIC K. pneumonia (Klebsiella pneumonia; [1])
12.5 µg/mL: MIC A. hydrophila (Aeromonas hydrophila; [1]) | MIC E. coli BL21 (E. coli BL21; [1])

PRT1127 (KDGPCVINGSPCQHGGTCVDDEGRASHASCLCPPGFSGNFCE; listed as Homo sapiens)
25 µg/mL: MIC S. marcescens (Serratia marcescens; [1]) | MIC P. mirabilis (Proteus mirabilis; [1]) | MIC C. diversus (Citrobacter diversus; [1])
50 µg/mL: MIC A. hydrophila (Aeromonas hydrophila; [1]) | MIC P. vulgaris (Proteus vulgaris; [1]) | MIC E. coli BL21 (E. coli BL21; [1]) | MIC K. pneumonia (Klebsiella pneumonia; [1])
12.5 µg/mL: MIC P. aeruginosa (Pseudomonas aeruginosa; [1]) | MIC E. cloacae (Enterobacter cloacae; [1]) | MIC (E. coli DH5α) | MIC M. catarrhalis (Moraxella catarrhalis; [1])

PRT1032 (DVNECDIPGHCQHGGTCLNLPGSYQCQCLQGFTGQYCD; listed as Homo sapiens)
12.5 µg/mL: MIC (Aeromonas hydrophila; A. hydrophila, 10 h cultivation at 37° C.) | MIC (Proteus vulgaris; P. vulgaris, 10 h cultivation at 37° C.) | MIC (E. coli BL21; E. coli BL21, 10 h cultivation at 37° C.) | MIC (Klebsiella pneumonia; K. pneumonia, 10 h cultivation at 37° C.)
50 µg/mL: MIC (Pseudomonas aeruginosa; P. aeruginosa, 10 h cultivation at 37° C.) | MIC (Enterobacter cloacae; E. cloacae, 10 h cultivation at 37° C.) | MIC (E. coli DH5α) | MIC (Moraxella catarrhalis; M. catarrhalis, 10 h cultivation at 37° C.)
25 µg/mL: MIC (Serratia marcescens; S. marcescens, 10 h cultivation at 37° C.) | MIC (Proteus mirabilis; P. mirabilis, 10 h cultivation at 37° C.) | MIC (Citrobacter diversus; C. diversus, 10 h cultivation at 37° C.)
